Legend:
Type in all cases: cell-based, Human
[1] = system: Jurkat cells; experiment: Cell proliferation rate / viability of drug-treated Jurkat cells (trypan blue, hemocytometer); conditions: for cell viability: 24-hour viability observation
Description: Human T lymphocytes, Jurkat (TIB-152, ATCC), were cultured and incubated at 37° C. under a humidified 5% CO2 atmosphere. The culture medium used was RPMI 1640 medium (52400, GIBCO) with 10% fetal bovine serum (FBS; 04-001-1A, Biological Industry) and 1% penicillin/streptomycin (15140, GIBCO). During experiments, cells were re-suspended in phenol red-free medium (11835-063, GIBCO) in the presence or absence of a drug, either methotrexate hydrate (MTX; […], SIGMA) or 2-deoxy-D-glucose (2DG; […], SIGMA), at a density of 1×10^6 cells/ml. Cell viability was estimated by using a hemocytometer to count trypan blue-stained cells. Relative cell count, presented in FIGS. 6B and 6E-6F, is a ratio of the cell count at t=24 hours to the initial cell count.

[2] = system: Jurkat cells; experiment: 24-hour monitoring of extracellular ROS levels of drug-treated Jurkat cells using the nanowire biosensor; conditions: t=6 hours, normalized by number of live cells
Description: For measurements of cellular metabolites/activity, cells were cultured in the chip, namely, in the culture compartment thereof (see, for example, FIG. 1A), while placing the chip in an incubator during measurements. A sample was introduced to the sensing compartment at 20 μl min^-1 by using a syringe pump. Human T lymphocytes, Jurkat (TIB-152, ATCC), were cultured and incubated at 37° C. under a humidified 5% CO2 atmosphere. The culture medium used was RPMI 1640 medium (52400, GIBCO) with 10% fetal bovine serum (FBS; 04-001-1A, Biological Industry) and 1% penicillin/streptomycin (15140, GIBCO). During experiments, cells were re-suspended in phenol red-free medium (11835-063, GIBCO) in the presence or absence of a drug, either methotrexate hydrate (MTX; […], SIGMA) or 2-deoxy-D-glucose (2DG; […], SIGMA), at a density of 1×10^6 cells/ml. Cellular samples were dispensed into the wells of the sensing chip (see FIGS. 1A and 1B) in an incubator. 24-hour monitoring of metabolic activity of drug-treated Jurkat cells by measuring extracellular ROS levels using the nanowire biosensor, was performed and the obtained data is presented in FIGS. 6A-G. Measured ROS levels were normalized by the number of live cells.

[3] = system: Jurkat cells; experiment: Extracellular lactate level of 2DG-treated Jurkat cells (lactate oxidase, nanowire biosensor); conditions: after 24 hours
Description: For lactate sensing, 0.1 unit/ml of lactate oxidase (LOX; L0638, SIGMA) was added in phenol red-free medium to convert lactate to pyruvate and H2O2 before lactate reaches the FET array (as depicted in FIG. 1D).
During experiments, cells were re-suspended in phenol red-free medium (11835-063, GIBCO) in the presence or absence of a drug, either methotrexate hydrate (MTX; M8407, SIGMA) or 2-deoxy-D-glucose (2DG; D6134, SIGMA), at a density of 1×10^6 cells/ml.
The correlation between extracellular lactate level of 2DG-treated Jurkat cells and a resultant cell proliferation rate after 24 hours was investigated.

[4] = system: Jurkat cells; experiment: pH sensing of drug-treated Jurkat cells (reductant-added medium, nanowire FET); conditions: 24-hour monitoring, culture medium
From the text: A conversion of the modified FET into a pH sensor was achieved by using a reductant-added solution. After supplementing a culture medium with 0.1% v/v DEHA to reduce the modified FET surface, surface proton density varied by protonation or by deprotonation dominantly changes the measured current.
For pH sensing, 0.1% v/v DEHA was supplemented in the sensing medium to reduce the 9,10-anthraquinone monolayer on the FET surface to obtain 9,10-dihydroxyanthracene (see also FIG. 1d) and H2O2 simultaneously. Therefore, no significant amount of H2O2 in a DEHA-supplemented medium altered a measured signal. As a result, surface proton density, varied by protonation or by deprotonation, dominantly changes an acquired signal.

CN(Cc1cnc2nc(N)nc(N)c2n1)c1ccc(C(=O)N[C@@H](CCC(=O)O)C(=O)O)cc1 [MTX, methotrexate hydrate]
cell viability [1]: anti-proliferative activity
ROS level [2]: noticeable decrease

O=CC[C@@H](O)[C@H](O)[C@H](O)CO [2DG, 2-deoxy-D-glucose]
cellular lactate secretion [3]: decreased
pH of treated cells versus control [4]: more basic than the control
cell viability [1]: anti-proliferative activity
cell proliferation rate ([1]; after 24 hours, relative cell count = count at t=24 hours / initial count): reduced
ROS level [2]: noticeable decrease
